Assay results from patent US20060116318A1, “Preptin methods of use” (priority 2002, published 2006).
Entries after “also recorded” stand apart in the source; their conditions may differ. Like-named read-outs stand apart in the source and are kept apart here.

Legend:
[1] = system: primary fetal rat osteoblasts; experiment: Proliferation (cell number, [3H]-thymidine incorporation) of fetal rat osteoblast-like cells; format: cell-based
Experimental: Osteoblast-Like Cell Culture. Osteoblasts were isolated from 20 day fetal rat calvariae as previously described (Cornish et al. (1999) American Journal of Physiology Endocrinology & Metabolism 277: E779-E783). Briefly, calvariae were excised and the frontal and parietal bones, free of suture and periosteal tissue, were collected. The calvariae were sequentially digested using collagenase and the cells from digests 3 and 4 were collected, pooled and washed. Cells were grown to confluence and then subcultured into 24 well plates. Cells were growth arrested in minimum essential medium (MEM)/0.1% bovine serum albumin for 24 h. Fresh media and experimental compounds were added for a further 24 h. Cells were pulsed with tritiated-thymidine two hours before the end of the experimental incubation. The effect of preptin on proliferation of fetal rat osteoblast-like cells was first assessed by the measurement of cell numbers. The effect of preptin on DNA synthesis in osteoblasts was then assessed by the measurement of [^3H]-thymidine incorporation into isolated fetal rat osteoblast-like cells. There were 6 wells in each group and each experiment was repeated 3 or 4 times.

[2] = system: murine bone marrow cultures; experiment: Osteoclastogenesis assay in murine bone marrow cultures (TRAP-positive multinucleated cells); format: cell-based, mouse; conditions: various concentrations; 7 days; with 1α,25-dihydroxyvitamin D3; FIG. 4
Experimental: The effects of preptin on the development of osteoclasts was also examined. To assess osteoclast development, bone marrow is obtained from the long bones of normal mice, aged 4-6 weeks and cultured. Non-adherent cells are removed and the cultures are grown in the presence of 1α,25-dihydroxyvitamin D3 throughout the experiment. The cultures were maintained for 7 days and the number of tartrate-resistant acid phosphatase-positive multinucleated cells was assessed. An osteoclastogenesis assay was performed with murine bone marrow cultures in the presence of various concentrations of rat preptin. The number of tartrate-resistant acid phosphatase (TRAP)-positive multinucleated cells was assessed (FIG. 4).

primary rat osteoblasts = experiment: TUNEL assay of apoptosis in serum-deprived primary rat osteoblasts; format: cell-based; conditions: 10^−8 M; apoptosis induced by serum deprivation; 18 h; FIG. 6
Experimental: Immunoblotting (Cell Signalling Methods). Primary rat osteoblasts prepared as described above were seeded in 6-well tissue culture plates at an initial density of 5×10^4 cells/mL in MEM 5% FCS, and grown to 80-90% confluence. After serum starvation overnight, cells were treated at room temperature with test substances in MEM 0.1% BSA. In experiments designed to determine the effect of inhibitors of signal transduction on preptin-induced p42/44 MAP kinase phosphorylation, the cells were pre-treated with the inhibitor for 30 min prior to addition of test substances. The exception was pertussis toxin, which was added 18 h prior to test substances. […] The lysates were briefly vortexed, clarified by centrifugation at 13,000 rpm at 4° C., then stored at −70° C. until analyzed. Protein content of the cell lysates was measured using the DC protein assay (BioRad, Hercules, Calif.). […] Incubation with the HRP-conjugated secondary antibody was for 1 h at room temperature, and the membranes were analyzed by ECL. […] Apoptosis in cultures of primary rat osteoblasts was assessed using the TUNEL method (DeadEnd™, Promega, Madison, Wis.) according to the manufacturer's instructions. […] After counterstaining with hematoxylin, the number of apoptotic nuclei per microscopic field was counted and expressed as a proportion of that observed in the cells exposed to serum starvation throughout the entire treatment period. […]

[3] = system: long-term osteoblast cultures; experiment: Osteoblast differentiation, mineralized bone nodules in long-term osteoblast cultures; format: cell-based; conditions: 10^−8M
[4] = system: sexually mature male mice; experiment: Local subcutaneous injection over the hemicalvaria, histomorphometry; format: in vivo; conditions: for Bone Area, Mean ± Std Error: twice daily s.c. over right hemicalvaria; for Bone Area, Mean ± Std Error / % Mineralizing Surface/Total Bone Surface, Mean ± Std Error: 5 days; for % Mineralizing Surface/Total Bone Surface, Mean ± Std Error: twice daily s.c.
Experimental: Three groups of sexually mature male mice were given twice daily subcutaneous injections over the right hemicalvaria for 5 consecutive days. Two groups received one of 2 doses of preptin (0.825 μg or 8.25 μg per injection), and a further […] received vehicle. The animals were sacrificed 1 week following the last injection. Fluorochrome labels were injected subcutaneously at the base of the tail on days 1 (calcein), 5 (alizarin red) and 14 (calcein) to measure dynamic histomorphometric indices (such as, extent of mineralizing surface). Calvariae were excised, fixed in 10% neutral-buffered formalin, dehydrated and embedded in methylmethacrylate resin. Sections were cut, mounted on gelatin-coated slides, and histomorphometric indices measured using image analysis.

[5] = system: isolated, perfused rat pancreas; conditions: infusion into isolated, Buchanan et al. 2001; cited from earlier work
[6] = system: murine neonatal calavarial organ culture system; experiment: Bone resorption in murine neonatal calvarial organ culture; format: cell-based, mouse; conditions: data not shown
[7] = system: murine neonatal calvarial organ culture; experiment: Thymidine incorporation in murine neonatal calvarial organ culture; format: cell-based, mouse; conditions: FIG. 3 (rat preptin, two concentrations)
[8] = primary osteoblasts pre-treated with inhibitor, FIG. 5A, 5B
[9] = high dose, 16.5 micrograms daily for five days, local s.c. injection

pertussis toxin
effect of inhibitor pre-treatment on the proliferative effects of preptin [1, 8]: blocked

DVSTSQAVLPDDFPRYPVGKFFKFDTWRQSAGRL (Rattus) [rat preptin]
osteoclast development (number of TRAP-positive multinucleated cells) [2]: did not affect osteoclast development

preptin: 34-amino acid peptide corresponding to Asp69-Leu102 of proinsulin-like growth factor II; species form not always stated
apoptosis, treatment/control ratio (primary rat osteoblasts): 0.78±0.08
osteoblast differentiation, number of mineralized bone nodules [3]: significantly increasing the number of mineralized bone nodules
Bone Area, Mean ± Std Error ([4]; high dose (8.25 μg per injection), P = 0.013 vs control 1.028 ± 0.023): *1.084 ± 0.017
% Mineralizing Surface/Total Bone Surface, Mean ± Std Error ([4]; high dose (8.25 μg per injection), P = 0.046 vs control 1.048 ± 0.013): *1.119 ± 0.032%
bone area compared to control (in words) [4, 9]: significant increase; also recorded: increased
mineralizing surface compared to control (in words) [4, 9]: significant increase; also recorded: increased
Bone Area, Mean ± Std Error ([4]; low dose (0.825 μg per injection), control 1.028 ± 0.023): 1.083 ± 0.027
% Mineralizing Surface/Total Bone Surface, Mean ± Std Error ([4]; low dose (0.825 μg per injection), control 1.048 ± 0.013): 1.065 ± 0.033%
second phase of insulin secretion [5]: significant increase
bone resorption [6]: did not affect bone resorption
thymidine incorporation [7]: stimulated
concentrations stimulating proliferation (cell number and DNA synthesis) ([1]; dose-dependent, primary fetal rat osteoblasts and osteoblast-like cell lines, 24 h, FIGS. 1 and 2 (rat and human preptin)): > 10^−11 M

N#CC(=C(/N)Sc1ccccc1N)/C(C#N)=C(\N)Sc1ccccc1N [U-0126]
effect of inhibitor pre-treatment on the proliferative effects of preptin [1]: blocked

COc1cccc(-c2cc(=O)c3ccccc3o2)c1N [PD-98059]
effect of inhibitor pre-treatment on the proliferative effects of preptin [1, 8]: blocked
